Data taken from ChEMBL document CHEMBL1201861, “Genomics of Drug Sensitity in Cancer screening data, Wellcome Trust Sanger Institute”.

What follows are molecules tested on RPMI-8866 (assay: cells). Conditions: Homo sapiens, RPMI-8866.
Type: functional, cell-based, Homo sapiens
Description: SANGER: Inhibition of human RPMI-8866 cell growth in a cell viability assay.
Work on `CCCCCCCCCCCC1=C(O)C(=O)C=C(O)C1=O` [EMBELIN] yielded an IC50 of 8.1 µM.

Each molecule was assayed on ACN (assay: cells). Conditions: Homo sapiens, ACN.
Type: functional, cell-based, Homo sapiens
Description: SANGER: Inhibition of human ACN cell growth in a cell viability assay.
`CCCCCCCCCCCC1=C(O)C(=O)C=C(O)C1=O` [EMBELIN] gave an IC50 of 5.86 µM.

What follows are molecules tested on NCI-H1650 (assay: cells). Conditions: Homo sapiens, NCI-H1650.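 Note: growth inhibition of human NCI-H1650 cells measured by a cell viability assay.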
Type: functional, cell-based, Homo sapiens
Description: SANGER: Inhibition of human NCI-H1650 cell growth in a cell viability assay.
With `CCCCCCCCCCCC1=C(O)C(=O)C=C(O)C1=O` [EMBELIN] the IC50 was 20.8 µM.

These molecules were tested on IA-LM (assay: cells). Conditions: Homo sapiens.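 Note: cell viability assay measuring growth inhibition of human IA-LM cells.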
Type: functional, cell-based
Description: SANGER: Inhibition of human IA-LM cell growth in a cell viability assay.
In the case of `CCCCCCCCCCCC1=C(O)C(=O)C=C(O)C1=O` [EMBELIN], the IC50 is reported as 2.23 µM.

What follows are molecules tested on NCI-H720 (assay: cells). Conditions: Homo sapiens, NCI-H720.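 Note: growth inhibition of human NCI-H720 cells determined by a cell viability assay.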
Type: functional, cell-based, Homo sapiens
Description: SANGER: Inhibition of human NCI-H720 cell growth in a cell viability assay.
`CCCCCCCCCCCC1=C(O)C(=O)C=C(O)C1=O` [EMBELIN] gave an IC50 greater than 32 µM.

These molecules were tested on DOHH-2 (assay: cells). Conditions: Homo sapiens, DOHH-2.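 Note: growth inhibition of human DOHH-2 cells, read out with a cell viability assay.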
Type: functional, cell-based, Homo sapiens
Description: SANGER: Inhibition of human DOHH-2 cell growth in a cell viability assay.
Molecule `CCCCCCCCCCCC1=C(O)C(=O)C=C(O)C1=O` [EMBELIN] has an IC50 of 7.57 µM.

What follows are molecules tested on 697 (assay: cells). Conditions: Homo sapiens.
Type: functional, cell-based, Homo sapiens
Description: SANGER: Inhibition of human 697 cell growth in a cell viability assay.
For `CCCCCCCCCCCC1=C(O)C(=O)C=C(O)C1=O` [EMBELIN], the IC50 was greater than 32 µM.

The molecules below were run on MZ7-mel (assay: cells). Conditions: Homo sapiens, MZ7-mel.
Type: functional, cell-based, Homo sapiens
Description: SANGER: Inhibition of human MZ7-mel cell growth in a cell viability assay.
In the case of `CCCCCCCCCCCC1=C(O)C(=O)C=C(O)C1=O` [EMBELIN], the IC50 is reported as 9.78 µM.

Each molecule was assayed on NCI-H226 (assay: cells). Conditions: Homo sapiens, NCI-H226.
Type: functional, cell-based, Homo sapiens
Description: SANGER: Inhibition of human NCI-H226 cell growth in a cell viability assay.
For `CCCCCCCCCCCC1=C(O)C(=O)C=C(O)C1=O` [EMBELIN], the IC50 was 17.9 µM.

Each molecule was assayed on 8-MG-BA (assay: cells). Conditions: Homo sapiens, 8-MG-BA.
Type: functional, cell-based, Homo sapiens
Description: SANGER: Inhibition of human 8-MG-BA cell growth in a cell viability assay.
`CCCCCCCCCCCC1=C(O)C(=O)C=C(O)C1=O` [EMBELIN] gave an IC50 of 3.53 µM.

The molecules below were run on Mo (assay: cells). Conditions: Homo sapiens, Mo.
Type: functional, cell-based, Homo sapiens
Description: SANGER: Inhibition of human Mo-T cell growth in a cell viability assay.
Work on `CCCCCCCCCCCC1=C(O)C(=O)C=C(O)C1=O` [EMBELIN] yielded an IC50 greater than 32 µM.

Each molecule was assayed on NCI-N87 (assay: cells). Conditions: Homo sapiens.
Type: functional, cell-based
Description: SANGER: Inhibition of human NCI-N87 cell growth in a cell viability assay.
`CCCCCCCCCCCC1=C(O)C(=O)C=C(O)C1=O` [EMBELIN] gave an IC50 greater than 32 µM.

The molecules below were run on NH-12 (assay: cells). Conditions: Homo sapiens, NH-12.
Type: functional, cell-based, Homo sapiens
Description: SANGER: Inhibition of human NH-12 cell growth in a cell viability assay.
`CCCCCCCCCCCC1=C(O)C(=O)C=C(O)C1=O` [EMBELIN] showed an IC50 of 3.88 µM.

Each molecule was assayed on DoTc2-4510 (assay: cells). Conditions: Homo sapiens.
Type: functional, cell-based
`CCCCCCCCCCCC1=C(O)C(=O)C=C(O)C1=O` [EMBELIN] showed an IC50 of 14.2 µM.

The molecules below were run on no-10 (assay: cells). Conditions: Homo sapiens.
Type: functional, cell-based, Homo sapiens
Description: SANGER: Inhibition of human no-10 cell growth in a cell viability assay.
`CCCCCCCCCCCC1=C(O)C(=O)C=C(O)C1=O` [EMBELIN] showed an IC50 of 13.9 µM.

Each molecule was assayed on ONS-76 (assay: cells). Conditions: Homo sapiens, ONS-76.
Type: functional, cell-based, Homo sapiens
Description: SANGER: Inhibition of human ONS-76 cell growth in a cell viability assay.
With `CCCCCCCCCCCC1=C(O)C(=O)C=C(O)C1=O` [EMBELIN] the IC50 was 8.45 µM.

What follows are molecules tested on A498 (assay: cells). Conditions: Homo sapiens, A498.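 Note: growth inhibition of human A498 cells, read out with a cell viability assay.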
Type: functional, cell-based, Homo sapiens
Description: SANGER: Inhibition of human A498 cell growth in a cell viability assay.
With `CCCCCCCCCCCC1=C(O)C(=O)C=C(O)C1=O` [EMBELIN] the IC50 was greater than 32 µM.

These molecules were tested on OS-RC-2 (assay: cells). Conditions: Homo sapiens, OS-RC-2.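 Note: growth inhibition of human OS-RC-2 cells, measured by a cell viability assay.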
Type: functional, cell-based, Homo sapiens
Description: SANGER: Inhibition of human OS-RC-2 cell growth in a cell viability assay.
Molecule `CCCCCCCCCCCC1=C(O)C(=O)C=C(O)C1=O` [EMBELIN] has an IC50 of 9.34 µM.

The molecules below were run on BB30-HNC (assay: cells). Conditions: Homo sapiens, BB30-HNC.
Type: functional, cell-based, Homo sapiens
Description: SANGER: Inhibition of human BB30-HNC cell growth in a cell viability assay.
`CCCCCCCCCCCC1=C(O)C(=O)C=C(O)C1=O` [EMBELIN] was tested, and the IC50 was 5.06 µM.

The molecules below were run on SK-UT-1 (assay: cells). Conditions: Homo sapiens, SK-UT-1.
Type: functional, cell-based, Homo sapiens
Description: SANGER: Inhibition of human SK-UT-1 cell growth in a cell viability assay.
Molecule `CCCCCCCCCCCC1=C(O)C(=O)C=C(O)C1=O` [EMBELIN] has an IC50 of 4.69 µM.

The molecules below were run on IST-SL1 (assay: cells). Conditions: Homo sapiens, IST-SL1.
Type: functional, cell-based, Homo sapiens
Description: SANGER: Inhibition of human IST-SL1 cell growth in a cell viability assay.
`CCCCCCCCCCCC1=C(O)C(=O)C=C(O)C1=O` [EMBELIN] was tested, and the IC50 was greater than 32 µM.

These molecules were tested on KURAMOCHI (assay: cells). Conditions: Homo sapiens, KURAMOCHI.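 Note: growth inhibition of KURAMOCHI cells, read out with a cell viability assay.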
Type: functional, cell-based, Homo sapiens
Description: SANGER: Inhibition of human KURAMOCHI cell growth in a cell viability assay.
`CCCCCCCCCCCC1=C(O)C(=O)C=C(O)C1=O` [EMBELIN] gave an IC50 of 7.06 µM.

Each molecule was assayed on LS-513 (assay: cells). Conditions: Homo sapiens, LS-513.
Type: functional, cell-based, Homo sapiens
Description: SANGER: Inhibition of human LS-513 cell growth in a cell viability assay.
For `CCCCCCCCCCCC1=C(O)C(=O)C=C(O)C1=O` [EMBELIN], the IC50 was greater than 32 µM.

Each molecule was assayed on HD-MY-Z (assay: cells). Conditions: Homo sapiens, HD-MY-Z.
Type: functional, cell-based, Homo sapiens
Description: SANGER: Inhibition of human HD-MY-Z cell growth in a cell viability assay.
`CCCCCCCCCCCC1=C(O)C(=O)C=C(O)C1=O` [EMBELIN] was tested, and the IC50 was 26.9 µM.

These molecules were tested on LAMA-84 (assay: cells). Conditions: Homo sapiens, LAMA-84.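 Note: growth inhibition of LAMA-84 cells, read out with a cell viability assay.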
Type: functional, cell-based, Homo sapiens
Description: SANGER: Inhibition of human LAMA-84 cell growth in a cell viability assay.
`CCCCCCCCCCCC1=C(O)C(=O)C=C(O)C1=O` [EMBELIN] showed an IC50 of 18.5 µM.

Each molecule was assayed on MV4-11 (assay: cells). Conditions: Homo sapiens, MV4-11.
Type: functional, cell-based, Homo sapiens, MV-4-11
Description: SANGER: Inhibition of human MV-4-11 cell growth in a cell viability assay.
In the case of `CCCCCCCCCCCC1=C(O)C(=O)C=C(O)C1=O` [EMBELIN], the IC50 is reported as greater than 32 µM.

These molecules were tested on JAR (assay: cells). Conditions: Homo sapiens, JAR.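 Note: growth inhibition of human JAR cells determined with a cell viability assay.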
Type: functional, cell-based, Homo sapiens
Description: SANGER: Inhibition of human JAR cell growth in a cell viability assay.
`CCCCCCCCCCCC1=C(O)C(=O)C=C(O)C1=O` [EMBELIN] showed an IC50 greater than 32 µM.

What follows are molecules tested on NCI-H1155 (assay: cells). Conditions: Homo sapiens, NCI-H1155.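 Note: cell growth inhibition measured by a viability assay.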
Type: functional, cell-based, Homo sapiens
Description: SANGER: Inhibition of human NCI-H1155 cell growth in a cell viability assay.
`CCCCCCCCCCCC1=C(O)C(=O)C=C(O)C1=O` [EMBELIN] was tested, and the IC50 was greater than 32 µM.

Each molecule was assayed on JVM-2 (assay: cells). Conditions: Homo sapiens, JVM-2.
Type: functional, cell-based, Homo sapiens
Description: SANGER: Inhibition of human JVM-2 cell growth in a cell viability assay.
Molecule `CCCCCCCCCCCC1=C(O)C(=O)C=C(O)C1=O` [EMBELIN] has an IC50 greater than 32 µM.

The molecules below were run on MONO-MAC-6 (assay: cells). Conditions: Homo sapiens, MONO-MAC-6.
Type: functional, cell-based, Homo sapiens
Description: SANGER: Inhibition of human MONO-MAC-6 cell growth in a cell viability assay.
`CCCCCCCCCCCC1=C(O)C(=O)C=C(O)C1=O` [EMBELIN] was tested, and the IC50 was 21.8 µM.

These molecules were tested on ES4 (assay: cells). Conditions: Homo sapiens, ES4.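 Note: growth inhibition of human ES4 cells, read out by a cell viability assay.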
Type: functional, cell-based, Homo sapiens
Description: SANGER: Inhibition of human ES4 cell growth in a cell viability assay.
`CCCCCCCCCCCC1=C(O)C(=O)C=C(O)C1=O` [EMBELIN] was tested, and the IC50 was 4.52 µM.

Each molecule was assayed on HCC2157 (assay: cells). Conditions: Homo sapiens, HCC2157.
Type: functional, cell-based, Homo sapiens
Description: SANGER: Inhibition of human HCC2157 cell growth in a cell viability assay.
With `CCCCCCCCCCCC1=C(O)C(=O)C=C(O)C1=O` [EMBELIN] the IC50 was greater than 32 µM.

Each molecule was assayed on L-363 (assay: cells). Conditions: Homo sapiens, L-363.
Type: functional, cell-based, Homo sapiens
Description: SANGER: Inhibition of human L-363 cell growth in a cell viability assay.
For `CCCCCCCCCCCC1=C(O)C(=O)C=C(O)C1=O` [EMBELIN], the IC50 was 24.1 µM.

These molecules were tested on SBC-1 (assay: cells). Conditions: Homo sapiens, SBC-1.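 Note: cell viability assay measuring growth inhibition of the SBC-1 cell line, IC50 being the concentration that halves growth.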
Type: functional, cell-based, Homo sapiens
Description: SANGER: Inhibition of human SBC-1 cell growth in a cell viability assay.
`CCCCCCCCCCCC1=C(O)C(=O)C=C(O)C1=O` [EMBELIN] was tested, and the IC50 was 28.5 µM.

Each molecule was assayed on C8166 (assay: cells). Conditions: Homo sapiens, C8166.
Type: functional, cell-based, Homo sapiens
Description: SANGER: Inhibition of human C8166 cell growth in a cell viability assay.
In the case of `CCCCCCCCCCCC1=C(O)C(=O)C=C(O)C1=O` [EMBELIN], the IC50 is reported as 7.64 µM.

What follows are molecules tested on LB2241-RCC (assay: cells). Conditions: Homo sapiens, LB2241-RCC.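 Note: cell viability assay measuring how strongly the cultured human renal carcinoma line is prevented from growing.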
Type: functional, cell-based, Homo sapiens
Description: SANGER: Inhibition of human LB2241-RCC cell growth in a cell viability assay.
`CCCCCCCCCCCC1=C(O)C(=O)C=C(O)C1=O` [EMBELIN] showed an IC50 greater than 32 µM.

Each molecule was assayed on HCE-T (assay: cells). Conditions: Homo sapiens, HCE-T.
Type: functional, cell-based, Homo sapiens
Description: SANGER: Inhibition of human HCE-T cell growth in a cell viability assay.
Molecule `CCCCCCCCCCCC1=C(O)C(=O)C=C(O)C1=O` [EMBELIN] has an IC50 of 13.1 µM.

These molecules were tested on SNU-5 (assay: cells). Conditions: Homo sapiens, SNU-5.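 Note: cell viability readout used to measure growth inhibition in human NCI-SNU-5 cells.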
Type: functional, cell-based, Homo sapiens
Description: SANGER: Inhibition of human NCI-SNU-5 cell growth in a cell viability assay.
In the case of `CCCCCCCCCCCC1=C(O)C(=O)C=C(O)C1=O` [EMBELIN], the IC50 is reported as greater than 32 µM.

These molecules were tested on IST-MES1 (assay: cells). Conditions: Homo sapiens, IST-MES1.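 Note: growth inhibition of IST-MES1 cells, measured with a cell viability assay.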
Type: functional, cell-based, Homo sapiens
Description: SANGER: Inhibition of human IST-MES1 cell growth in a cell viability assay.
`CCCCCCCCCCCC1=C(O)C(=O)C=C(O)C1=O` [EMBELIN] showed an IC50 greater than 32 µM.

These molecules were tested on NCI-H23 (assay: cells). Conditions: Homo sapiens, NCI-H23.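 Note: cell viability assay measuring growth inhibition of NCI-H23 cells.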
Type: functional, cell-based, Homo sapiens
Description: SANGER: Inhibition of human NCI-H23 cell growth in a cell viability assay.
With `CCCCCCCCCCCC1=C(O)C(=O)C=C(O)C1=O` [EMBELIN] the IC50 was greater than 32 µM.

These molecules were tested on SK-PN-DW (assay: cells). Conditions: Homo sapiens, SK-PN-DW.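 Note: growth inhibition measured with a viability assay on these cells.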
Type: functional, cell-based, Homo sapiens
Description: SANGER: Inhibition of human SK-PN-DW cell growth in a cell viability assay.
Molecule `CCCCCCCCCCCC1=C(O)C(=O)C=C(O)C1=O` [EMBELIN] has an IC50 of 30.6 µM.

The molecules below were run on KM-H2 (assay: cells). Conditions: Homo sapiens, KM-H2.
Type: functional, cell-based, Homo sapiens
Description: SANGER: Inhibition of human KM-H2 cell growth in a cell viability assay.
With `CCCCCCCCCCCC1=C(O)C(=O)C=C(O)C1=O` [EMBELIN] the IC50 was 26.5 µM.

Each molecule was assayed on SCC-15 (assay: cells). Conditions: Homo sapiens, SCC-15.
Type: functional, cell-based, Homo sapiens
Description: SANGER: Inhibition of human SCC-15 cell growth in a cell viability assay.
`CCCCCCCCCCCC1=C(O)C(=O)C=C(O)C1=O` [EMBELIN] gave an IC50 of 7.81 µM.

What follows are molecules tested on LOX IMVI (assay: cells). Conditions: Homo sapiens, LOX IMVI.
Type: functional, cell-based, Homo sapiens
Description: SANGER: Inhibition of human LOXIMVI cell growth in a cell viability assay.
`CCCCCCCCCCCC1=C(O)C(=O)C=C(O)C1=O` [EMBELIN] was tested, and the IC50 was 17.5 µM.

The molecules below were run on MHH-PREB-1 (assay: cells). Conditions: Homo sapiens, MHH-PREB-1.
Type: functional, cell-based, Homo sapiens
Description: SANGER: Inhibition of human MHH-PREB-1 cell growth in a cell viability assay.
For `CCCCCCCCCCCC1=C(O)C(=O)C=C(O)C1=O` [EMBELIN], the IC50 was 10.9 µM.

Each molecule was assayed on CCRF-CEM (assay: cells). Conditions: Homo sapiens, CCRF-CEM.
Type: functional, cell-based, Homo sapiens
Description: SANGER: Inhibition of human CCRF-CEM cell growth in a cell viability assay.
Work on `CCCCCCCCCCCC1=C(O)C(=O)C=C(O)C1=O` [EMBELIN] yielded an IC50 of 3.02 µM.

The molecules below were run on HH (assay: cells). Conditions: Homo sapiens, HH.
Type: functional, cell-based, Homo sapiens
Description: SANGER: Inhibition of human HH cell growth in a cell viability assay.
In the case of `CCCCCCCCCCCC1=C(O)C(=O)C=C(O)C1=O` [EMBELIN], the IC50 is reported as greater than 32 µM.

The molecules below were run on DU-4475 (assay: cells). Conditions: Homo sapiens, DU-4475.
Type: functional, cell-based, Homo sapiens
Description: SANGER: Inhibition of human DU-4475 cell growth in a cell viability assay.
With `CCCCCCCCCCCC1=C(O)C(=O)C=C(O)C1=O` [EMBELIN] the IC50 was 13.2 µM.

What follows are molecules tested on SK-N-FI (assay: cells). Conditions: Homo sapiens, SK-N-FI.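 Note: cell viability assay measuring growth inhibition of human SK-N-FI cells.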
Type: functional, cell-based, Homo sapiens
Description: SANGER: Inhibition of human SK-N-FI cell growth in a cell viability assay.
Molecule `CCCCCCCCCCCC1=C(O)C(=O)C=C(O)C1=O` [EMBELIN] has an IC50 greater than 32 µM.

The molecules below were run on NCI-H1299 (assay: cells). Conditions: Homo sapiens.
Type: functional, cell-based
Description: SANGER: Inhibition of human NCI-H1299 cell growth in a cell viability assay.
Molecule `CCCCCCCCCCCC1=C(O)C(=O)C=C(O)C1=O` [EMBELIN] has an IC50 greater than 32 µM.
